ChEMBL document CHEMBL1154558, “Cytotoxic prenylxanthones from Garcinia bracteata” (J Nat Prod, 2000)
In brackets after ≈: the same amount, converted by molar mass.

How the values were obtained:
[1] = system: KB; assay: Cytotoxicity against human KB cells by colorimetric assay; type: functional, cell-based
[2] = Inhibition of FTase by fluorimetry

| Activity [2] [µg/mL] | SMILES | IC50 [1] [µg/mL] |
| --- | --- | --- |
| – | CC(C)=CC[C@@]12OC(C)(C)[C@@H]3C[C@@H](C=C4C(=O)c5c(O)cc(O)cc5O[C@]431)C2=O | 0.8 (≈ 2.02 µM) |
| – | C=CC(C)(C)c1c(O)cc(OC)c2c1O[C@@]13C[C@H]4[C@@H](C=C1C2=O)[C@](CC=C(C)C)(OC4(C)C)C3=O | 0.2 (≈ 0.418 µM) |
| > 10 | C=CC(C)(C)c1c(O)cc(OC)c2c1O[C@]13C(=C[C@@H]4C[C@H]1C(C)(C)O[C@@]3(CC=C(C)C)C4=O)C2=O | 0.3 (≈ 0.627 µM) |
| > 10 | C=CC(C)(C)c1c(O)cc(OC)c2c1O[C@]13[C@@H](C2=O)[C@H](OC)[C@@H]2C[C@H]1C(C)(C)O[C@@]3(CC=C(C)C)C2=O | 1.5 (≈ 2.94 µM) |
| 4.7 | C=CC(C)(C)c1c(O)cc(O)c2c1O[C@]13C(=C[C@@H]4C[C@H]1C(C)(C)O[C@@]3(CC=C(C)C)C4=O)C2=O [BRACTATIN] | 0.4 (≈ 0.861 µM) |
| 5.6 | CC(C)=CC[C@]12OC(C)(C)[C@@H]3C[C@@H](C=C4C(=O)c5c(O)cc6c(c5O[C@]431)C(C)(C)[C@H](C)O6)C2=O [ISOBRACTATIN] | 1.5 (≈ 3.23 µM) |
| > 10 | COc1cc2c(c3c1C(=O)C1=C[C@@H]4C[C@H]5C(C)(C)O[C@](CC=C(C)C)(C4=O)[C@@]15O3)C(C)(C)[C@H](C)O2 | 0.8 (≈ 1.67 µM) |
